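Step 1: Grow cells in 96-well plates. Step 2: Expose to compound for 48 hours at 5 concentrations. Step 3: Interpolate endpoints linearly; if unreached, use highest concentration. GI50: concentration for 50% inhibition of growth.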 Calls of active or inactive are those of the source. No stated cut-off is given here; in the data, active = GI50 up to about 1.1 µM and inactive = higher.
How the values were obtained:
Assay in all cases: growth of human tumour cells (NCI), 48 h
TK-10 = tested on: TK-10
HL-60 = tested on: HL-60
HCT-116 = tested on: HCT-116
UO-31 = tested on: UO-31
NCI-H460 = tested on: NCI-H460
RXF 393 = tested on: RXF 393
SK-MEL-28 = tested on: SK-MEL-28
SNB-75 = tested on: SNB-75
NCI-H226 = tested on: NCI-H226
OVCAR-5 = tested on: OVCAR-5
IGROV-1 = tested on: IGROV-1
EKVX = tested on: EKVX
COLO 205 = tested on: COLO 205
Malme-3M = tested on: Malme-3M
UACC-257 = tested on: UACC-257
HCC 2998 = tested on: HCC 2998
786-0 = tested on: 786-0

SMILES	GI50 (TK-10)	GI50 (HL-60)	GI50 (HCT-116)	GI50 (UO-31)	GI50 (NCI-H460)	GI50 (RXF 393)	GI50 (SK-MEL-28)	GI50 (SNB-75)	GI50 (NCI-H226)	GI50 (OVCAR-5)	GI50 (IGROV-1)	GI50 (EKVX)	GI50 (COLO 205)	GI50 (Malme-3M)	GI50 (UACC-257)	GI50 (HCC 2998)	GI50 (786-0)
N#CC(/C(CCCC(=O)Nc1cccc([N+](=O)[O-])c1)=N/NC(=O)c1cc2ccccc2cc1O)c1ccccc1 (centres undefined)	31.1 µM (inactive)	4.79 µM (inactive)	35.6 µM (inactive)	6.56 µM (inactive)	21.2 µM (inactive)	5.07 µM (inactive)	> 100 µM (inactive)	> 100 µM (inactive)	> 100 µM (inactive)	36.5 µM (inactive)	17.1 µM (inactive)	23.2 µM (inactive)	23.6 µM (inactive)	67.1 µM (inactive)	24.4 µM (inactive)	36.6 µM (inactive)	24.2 µM (inactive)
O=C1C[C@H](c2ccc(O)c(O)c2)Oc2cc(O)cc(O)c21	73.1 µM (inactive)	30.6 µM (inactive)	> 100 µM (inactive)	29.8 µM (inactive)	72.4 µM (inactive)	> 100 µM (inactive)	90.6 µM (inactive)	83.9 µM (inactive)	> 100 µM (inactive)	> 100 µM (inactive)	> 100 µM (inactive)	83.8 µM (inactive)	> 100 µM (inactive)	87.1 µM (inactive)	> 100 µM (inactive)	> 100 µM (inactive)	> 100 µM (inactive)
CN(C)c1nc(N(C)C)sc(=O)n1	> 100 µM (inactive)	> 100 µM (inactive)	–	> 100 µM (inactive)	> 100 µM (inactive)	> 100 µM (inactive)	> 100 µM (inactive)	> 100 µM (inactive)	> 100 µM (inactive)	> 100 µM (inactive)	> 100 µM (inactive)	> 100 µM (inactive)	–	–	> 100 µM (inactive)	> 100 µM (inactive)	> 100 µM (inactive)
CC(=O)C1=C(C)NC2C=CC=CN12 (centres undefined)	> 100 µM (inactive)	> 100 µM (inactive)	> 100 µM (inactive)	> 100 µM (inactive)	> 100 µM (inactive)	> 100 µM (inactive)	> 100 µM (inactive)	> 100 µM (inactive)	> 100 µM (inactive)	> 100 µM (inactive)	> 100 µM (inactive)	> 100 µM (inactive)	> 100 µM (inactive)	> 100 µM (inactive)	> 100 µM (inactive)	> 100 µM (inactive)	> 100 µM (inactive)
O=C1C=C(O)c2nc(O)ccc2C1=O	> 100 µM (inactive)	> 100 µM (inactive)	> 100 µM (inactive)	> 100 µM (inactive)	> 100 µM (inactive)	> 100 µM (inactive)	> 100 µM (inactive)	> 100 µM (inactive)	> 100 µM (inactive)	–	> 100 µM (inactive)	> 100 µM (inactive)	> 100 µM (inactive)	> 100 µM (inactive)	> 100 µM (inactive)	> 100 µM (inactive)	> 100 µM (inactive)
COc1cc2c(cc1OC)C(C(CBr)CBr)N(C1CCCC1)CC2 (centres undefined)	> 100 µM (inactive)	> 100 µM (inactive)	–	> 100 µM (inactive)	> 100 µM (inactive)	> 100 µM (inactive)	> 100 µM (inactive)	> 100 µM (inactive)	82.6 µM (inactive)	> 100 µM (inactive)	> 100 µM (inactive)	> 100 µM (inactive)	> 100 µM (inactive)	> 100 µM (inactive)	> 100 µM (inactive)	> 100 µM (inactive)	> 100 µM (inactive)
COc1cccc2ccc(C(=O)c3ccccc3)nc12	> 100 µM (inactive)	–	> 100 µM (inactive)	2.22 µM (inactive)	–	–	88.9 µM (inactive)	> 100 µM (inactive)	> 100 µM (inactive)	> 100 µM (inactive)	> 100 µM (inactive)	> 100 µM (inactive)	> 100 µM (inactive)	> 100 µM (inactive)	–	> 100 µM (inactive)	> 100 µM (inactive)
COC(=O)N/N=C/c1oc(-c2ccccc2)c(-c2ccccc2)c1[N+](=O)[O-]	> 100 µM (inactive)	> 100 µM (inactive)	> 100 µM (inactive)	> 100 µM (inactive)	> 100 µM (inactive)	> 100 µM (inactive)	> 100 µM (inactive)	> 100 µM (inactive)	> 100 µM (inactive)	> 100 µM (inactive)	> 100 µM (inactive)	–	> 100 µM (inactive)	> 100 µM (inactive)	> 100 µM (inactive)	> 100 µM (inactive)	> 100 µM (inactive)
CC(=O)OC1COC(N2C(=O)C(=O)c3ccccc32)C(OC(C)=O)C1OC(C)=O (centres undefined)	> 100 µM (inactive)	–	–	> 100 µM (inactive)	> 100 µM (inactive)	> 100 µM (inactive)	> 100 µM (inactive)	> 100 µM (inactive)	> 100 µM (inactive)	–	> 100 µM (inactive)	> 100 µM (inactive)	> 100 µM (inactive)	> 100 µM (inactive)	> 100 µM (inactive)	> 100 µM (inactive)	> 100 µM (inactive)
COc1ccc(C(c2c(O)c3ccccc3n(-c3ccccc3)c2=O)c2c(O)c3ccccc3n(-c3ccccc3)c2=O)cc1	> 100 µM (inactive)	–	> 100 µM (inactive)	> 100 µM (inactive)	–	> 100 µM (inactive)	> 100 µM (inactive)	–	> 100 µM (inactive)	> 100 µM (inactive)	–	> 100 µM (inactive)	> 100 µM (inactive)	> 100 µM (inactive)	–	> 100 µM (inactive)	25.4 µM (inactive)
CCCN(CCC)C1=Nc2ccccc2-n2cnnc2C1	> 100 µM (inactive)	> 100 µM (inactive)	> 100 µM (inactive)	> 100 µM (inactive)	> 100 µM (inactive)	> 100 µM (inactive)	> 100 µM (inactive)	–	> 100 µM (inactive)	> 100 µM (inactive)	> 100 µM (inactive)	> 100 µM (inactive)	> 100 µM (inactive)	> 100 µM (inactive)	–	–	> 100 µM (inactive)
CC(=O)NCc1c(C(N)=O)ncn1Cc1ccccc1	> 100 µM (inactive)	> 100 µM (inactive)	> 100 µM (inactive)	–	> 100 µM (inactive)	> 100 µM (inactive)	> 100 µM (inactive)	> 100 µM (inactive)	–	–	> 100 µM (inactive)	> 100 µM (inactive)	> 100 µM (inactive)	–	> 100 µM (inactive)	> 100 µM (inactive)	> 100 µM (inactive)
C#C[C@@]1(O)CCCC2=CC(=O)C[C@]21C	> 100 µM (inactive)	> 100 µM (inactive)	–	> 100 µM (inactive)	> 100 µM (inactive)	> 100 µM (inactive)	> 100 µM (inactive)	–	> 100 µM (inactive)	> 100 µM (inactive)	> 100 µM (inactive)	> 100 µM (inactive)	> 100 µM (inactive)	> 100 µM (inactive)	> 100 µM (inactive)	> 100 µM (inactive)	> 100 µM (inactive)
COC(=O)C[S+]([O-])c1ccccc1 (centres undefined)	44 µM (inactive)	15.5 µM (inactive)	30.3 µM (inactive)	4.63 µM (inactive)	59.8 µM (inactive)	16.4 µM (inactive)	29.8 µM (inactive)	> 10 µM (inactive)	–	68.4 µM (inactive)	19.2 µM (inactive)	50.7 µM (inactive)	34.3 µM (inactive)	> 100 µM (inactive)	60.4 µM (inactive)	25.3 µM (inactive)	26.7 µM (inactive)
O=C1c2ccccc2C(=O)N1C/C=N/NS(=O)(=O)c1ccc2ccccc2c1	> 100 µM (inactive)	> 100 µM (inactive)	> 100 µM (inactive)	> 100 µM (inactive)	> 100 µM (inactive)	–	–	> 100 µM (inactive)	> 100 µM (inactive)	> 100 µM (inactive)	> 100 µM (inactive)	> 100 µM (inactive)	> 100 µM (inactive)	> 100 µM (inactive)	> 100 µM (inactive)	> 100 µM (inactive)	> 100 µM (inactive)
O=C(NN1C(=O)C(Cl)C1c1ccc(O)cc1)c1ccccc1O (centres undefined)	24.7 µM (inactive)	25.2 µM (inactive)	13.7 µM (inactive)	15.6 µM (inactive)	17.5 µM (inactive)	13.1 µM (inactive)	19.4 µM (inactive)	34.8 µM (inactive)	16 µM (inactive)	–	14 µM (inactive)	–	–	18.6 µM (inactive)	20.7 µM (inactive)	–	18.7 µM (inactive)
CCCC(C)NC1=C(NC(C)=O)C(=O)c2ccccc2C1=O (centres undefined)	> 100 µM (inactive)	97.3 µM (inactive)	> 100 µM (inactive)	> 100 µM (inactive)	> 100 µM (inactive)	> 100 µM (inactive)	> 100 µM (inactive)	> 100 µM (inactive)	> 100 µM (inactive)	–	> 100 µM (inactive)	> 100 µM (inactive)	> 100 µM (inactive)	36.1 µM (inactive)	> 100 µM (inactive)	> 100 µM (inactive)	> 100 µM (inactive)
CC1=C(CO)C(=O)O[C@@H]([C@@H](C)[C@H]2CC[C@H]3[C@@H]4C[C@H]5O[C@]56[C@@H](O)C=CC(=O)[C@]6(C)[C@H]4CC[C@]23C)C1 [WITHAFERIN A]	0.641 µM (active)	0.0394 µM (active)	0.282 µM (active)	1.09 µM (active)	2.91 µM (inactive)	–	0.55 µM (active)	4.11 µM (inactive)	1.3 µM (inactive)	1.91 µM (inactive)	1.16 µM (inactive)	–	0.406 µM (active)	0.243 µM (active)	1.59 µM (inactive)	0.509 µM (active)	0.401 µM (active)

Reference: ChEMBL document CHEMBL1201862, “PubChem BioAssay data set” (2004)
